This is an account of results in patent US20040039039A1, “Fungicidal mixtures” (priority 2003, published 2004).

The subject of the assay is Plasmopara viticola. In words: Protective activity against Peronospora in grapevines caused by Plasmopara viticola. Format: in vivo. The following applies: individual active compound, potted vines. The procedure: The active compounds, separately or together, were formulated as a 10% emulsion in a mixture of 63% by weight of cyclohexanone and 27% by weight of emulsifier, and diluted with water to the desired concentration.
Evaluation was carried out by determining the infected leaf areas in percent. These percentages were converted into efficacies. The efficacy (W) was calculated as follows using Abbot's formula: […]
α corresponds to the fungal infection of the treated plants in % and β corresponds to the fungal infection of the untreated (control) plants in % An efficacy of 0 means that the infection level of the treated plants corresponds to that of the untreated control plants; an efficacy of 100 means that the treated plants were not infected.
The expected efficacies of the mixtures of the active compounds were determined using Colby's formula [R. S. Colby, Weeds 15, 20-22 (1967)] and compared with the observed efficacies.
Colby's formula: E=x+y−x·y/100
E expected efficacy, expressed in % of the untreated control, when using the mixture of the active compounds A and B at the concentrations a and b x efficacy, expressed in % of the untreated control, when using active compound A at a concentration a y efficacy, expressed in % of the untreated control, when using active compound B at a concentration b.
Protective Activity Against Peronospora in Grapevines Caused by Plasmopara viticola Leaves of potted vines of the cultivar “Müiller-Thurgau” were sprayed to runoff point with an aqueous preparation of active compound which had been prepared using a stock solution comprising 10% of active compound, 85% of cyclohexanone and 5% of emulsifier. The next day, the undersides of the leaves were inoculated with an aqueous zoospore suspension of Plasmopara viticola. The vines were then placed firstly for 48 hours in a water-vapor-saturated chamber at 24° C. and then for 5 days in a greenhouse at 20-30° C. After this period of time, the plants were again placed in a moist chamber for 16 hours to accelerate the sporangiophore eruption. The extent to which the undersides of the leaves had been infected was then determined visually.

As to “manganese ethylenebis(dithiocarbamate) (zinc complex) [IIa]”, the “Efficacy in % of the untreated control” value turned out to be 11% (5 ppm in the spray liquor) and 72% (10 ppm in the spray liquor).
On the same counts, the results for “zinc ammoniate ethylenebis(dithiocarbamate) [IIc]” are 0% and 11%.
For the molecule `Cc1ccc(-c2c(Cl)nc(C#N)n2S(=O)(=O)N(C)C)cc1` [Ia, cyazofamid], the “Efficacy in % of the untreated control” value (0.05 ppm in the spray liquor) is on record as 56%, the “Efficacy in % of the untreated control” value (0.1 ppm in the spray liquor) stood at 78% and the “Efficacy in % of the untreated control” value (0.2 ppm in the spray liquor) is 89%.
